Source: PubChem BioAssay AID330 (DTP/NCI, 2004)
Several values for one entry are separate records, joined by “and”; a condition that tells them apart may be missing. Equal entries are not always repeated. Toxic doses and inconclusive results are not listed. Rule for the calls: active = survival T/C of 150% or more; inactive = T/C below 125% in these data.

System: P388 leukemia ip, CD2F1 mice, survival T/C
Assay: NCI In Vivo Anticancer Drug Screen. Data for tumor model P388 Leukemia (intraperitoneal) in CD2F1 (CDF1) mice
Conditions: endpoint: median survival time, higher = longer survival
Method in brief: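 Mice carrying the transplanted tumor received test compound or vehicle. Survival was recorded in each group, and the value is the treated-group measurement divided by that of the vehicle-treated control group.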

[1] = dose: 50.0 mg/kg/injection, schedule: Q01DX009 (ip), vehicle: saline
[2] = dose: 100.0 mg/kg/injection, schedule: Q01DX009 (ip), vehicle: saline
[3] = dose: 200.0 mg/kg/injection, schedule: Q01DX009 (ip), vehicle: saline
[4] = dose: 50.0 mg/kg/injection, schedule: Q01DX009 (ip), vehicle: saline with Tween-80
[5] = dose: 100.0 mg/kg/injection, schedule: Q01DX009 (ip), vehicle: saline with Tween-80
[6] = dose: 200.0 mg/kg/injection, schedule: Q01DX009 (ip), vehicle: saline with Tween-80
[7] = dose: 50.0 mg/kg/injection, schedule: Q01DX005 (ip), vehicle: saline with Tween-80
[8] = dose: 100.0 mg/kg/injection, schedule: Q01DX005 (ip), vehicle: saline with Tween-80
[9] = dose: 200.0 mg/kg/injection, schedule: Q01DX005 (ip), vehicle: saline with Tween-80
[10] = dose: 25.0 mg/kg/injection, schedule: Q01DX005 (ip), vehicle: saline with Tween-80
[11] = dose: 60.0 mg/kg/injection, schedule: Q01DX005 (ip), vehicle: saline with Tween-80
[12] = dose: 120.0 mg/kg/injection, schedule: Q01DX005 (ip), vehicle: saline with Tween-80
[13] = dose: 240.0 mg/kg/injection, schedule: Q01DX005 (ip), vehicle: saline with Tween-80
[14] = dose: 60.0 mg/kg/injection, schedule: Q01DX005 (ip), vehicle: Klucel (hydroxypropylcellulose) (HPC)
[15] = dose: 120.0 mg/kg/injection, schedule: Q01DX005 (ip), vehicle: Klucel (hydroxypropylcellulose) (HPC)
[16] = dose: 240.0 mg/kg/injection, schedule: Q01DX005 (ip), vehicle: Klucel (hydroxypropylcellulose) (HPC)
[17] = dose: 50.0 mg/kg/injection, schedule: Q01DX009 (ip), vehicle: Klucel (hydroxypropylcellulose) (HPC)
[18] = dose: 100.0 mg/kg/injection, schedule: Q01DX009 (ip), vehicle: Klucel (hydroxypropylcellulose) (HPC)
[19] = dose: 200.0 mg/kg/injection, schedule: Q01DX009 (ip), vehicle: Klucel (hydroxypropylcellulose) (HPC)
[20] = dose: 50.0 mg/kg/injection, schedule: Q04DX003 (ip), vehicle: saline with Tween-80
[21] = dose: 100.0 mg/kg/injection, schedule: Q04DX003 (ip), vehicle: saline with Tween-80
[22] = dose: 200.0 mg/kg/injection, schedule: Q04DX003 (ip), vehicle: saline with Tween-80

Measured: T/C

O=C(O)c1cnc2ccccn12
inactive: dose: 50.0 mg/kg/injection, schedule: Q01DX009 (ip), vehicle: acetone 112 % of control | [1] 95 % of control | dose: 100.0 mg/kg/injection, schedule: Q01DX009 (ip), vehicle: acetone 117 % of control | [2] 96 % of control | dose: 200.0 mg/kg/injection, schedule: Q01DX009 (ip), vehicle: acetone 102 % of control | [3] 107 % of control

Cc1ccc(S(=O)CC(O)COCc2ccccc2)cc1 (configuration not stated)
inactive: [4] 89 % of control | [5] 94 % of control | [6] 91 % of control

COc1cc2c(Cl)ncnc2c(OC)c1OC
inactive: [7] 106 % of control | [8] 106 % of control | [9] 109 % of control

CC1(C)NC(=O)[C@]2(C[C@@H](OC(=O)c3ccccc3)C=C2C=O)O1
inactive: [10] 109 % of control | [7] 96 % of control

CCCCCC(CN(C)C)C(O)/C=C/c1ccc(Cl)cc1Cl (configuration not stated)
inactive: dose: 12.5 mg/kg/injection, schedule: Q01DX009 (ip), vehicle: saline 108 % of control | dose: 25.0 mg/kg/injection, schedule: Q01DX009 (ip), vehicle: saline 100 % of control | [1] 99 % of control

CSc1nc(SC)c2c(C)cn(C3OC(C)C(O)C(O)C3O)c2n1 (configuration not stated)
inactive: [8] 94 % of control | [9] 93 % of control | dose: 400.0 mg/kg/injection, schedule: Q01DX005 (ip), vehicle: saline with Tween-80 97 % of control

Cc1ccc(CC2CC(=O)NC2=O)cc1 (configuration not stated)
inactive: [11] 105 % of control | [12] 93 % of control | [13] 96 % of control

Cc1ccc(N=NC2Sc3nc4ccccc4n3C2=O)cc1 (configuration not stated)
inactive: [14] 101 % of control | [15] 97 % of control | [16] 88 % of control

O=[N+]([O-])c1ccc(Sc2c3ccccc3nc3ccccc23)cn1
inactive: [10] 104 % of control | [7] 109 % of control | [8] 104 % of control | [9] 101 % of control

C=C1C[C@@H]2[C@H](C1=O)[C@@H]1CC[C@H]3O[C@]31C2(C)C
inactive: dose: 50.0 mg/kg/injection, schedule: Q04DX002 (ip), vehicle: Klucel (hydroxypropylcellulose) (HPC) 106 % of control | dose: 100.0 mg/kg/injection, schedule: Q04DX002 (ip), vehicle: Klucel (hydroxypropylcellulose) (HPC) 101 % of control | dose: 200.0 mg/kg/injection, schedule: Q04DX002 (ip), vehicle: Klucel (hydroxypropylcellulose) (HPC) 100 % of control

CC1CCCCN1C(=O)C(c1ccccc1)(c1ccccc1)c1ccccc1 (configuration not stated)
inactive: dose: 50.0 mg/kg/injection, schedule: Q01DX005 (ip), vehicle: Klucel (hydroxypropylcellulose) (HPC) 99 % of control | dose: 100.0 mg/kg/injection, schedule: Q01DX005 (ip), vehicle: Klucel (hydroxypropylcellulose) (HPC) 99 % of control | dose: 200.0 mg/kg/injection, schedule: Q01DX005 (ip), vehicle: Klucel (hydroxypropylcellulose) (HPC) 93 % of control

O=C1OCc2c[n+]([O-])ccc21
inactive: dose: 20.0 mg/kg/injection, schedule: Q01DX005 (ip), vehicle: Klucel (hydroxypropylcellulose) (HPC) 96 % of control | dose: 40.0 mg/kg/injection, schedule: Q01DX005 (ip), vehicle: Klucel (hydroxypropylcellulose) (HPC) 118 % of control | dose: 80.0 mg/kg/injection, schedule: Q01DX005 (ip), vehicle: Klucel (hydroxypropylcellulose) (HPC) 91 % of control

CCc1cc2c(cc1C(C)=O)C(C)(C)CCC2(C)C
inactive: [4] 94 % of control | [5] 110 % of control

O=C1c2cccnc2C(=O)N1CCO
inactive: dose: 50.0 mg/kg/injection, schedule: Q01DX005 (ip), vehicle: saline 95 % of control | dose: 100.0 mg/kg/injection, schedule: Q01DX005 (ip), vehicle: saline 100 % of control | dose: 200.0 mg/kg/injection, schedule: Q01DX005 (ip), vehicle: saline 101 % of control

O=c1[nH]c2cc(Cl)ccc2c(CCl)c1Cl
inactive: dose: 25.0 mg/kg/injection, schedule: Q01DX009 (ip), vehicle: saline with Tween-80 110 % of control | [4] 110 % of control

CC(=O)Nc1nnc(SSc2nnc(NC(C)=O)s2)s1
inactive: [17] 90 % of control | [18] 102 % of control | [19] 94 % of control

COc1cc(N=Nc2c(Cl)cc([N+](=O)[O-])cc2Cl)c([OH+]C)cc1[N+]#N.COc1cc(N=Nc2c(Cl)cc([N+](=O)[O-])cc2Cl)c([OH+]C)cc1[N+]#N.[Cl][Zn][Cl]
inactive: [1] 111 % of control and 115 % of control | [2] 120 % of control and 122 % of control | [3] 119 % of control and 124 % of control | dose: 400.0 mg/kg/injection, schedule: Q01DX009 (ip), vehicle: saline 119 % of control

O=C(O)C12C3C4C5C3C3(OCCO3)C1(Br)C5C42 (configuration not stated)
inactive: [11] 100 % of control | [12] 102 % of control | [13] 107 % of control

CC(C)(C)c1cc(/C=N/n2c(-c3ccccc3)nc3ccccc3c2=O)cc(C(C)(C)C)c1O
inactive: [14] 98 % of control | [15] 97 % of control | [16] 90 % of control

CCCCCCSc1nc2ccc(N=Cc3ccccc3O)cc2s1
inactive: [17] 94 % of control | [18] 87 % of control | [19] 90 % of control

C[Si](C)(C)CSCC#N
inactive: dose: 100.0 mg/kg/injection, schedule: Q01DX001 (ip), vehicle: saline with Tween-80 98 % of control | dose: 200.0 mg/kg/injection, schedule: Q01DX001 (ip), vehicle: saline with Tween-80 107 % of control

Cc1ccc2cccc(C(=O)N(C)C)c2[n+]1C
inactive: dose: 31.2 micrograms/kg/injection, schedule: Q04DX002 (ip), vehicle: saline 100 % of control | dose: 62.5 micrograms/kg/injection, schedule: Q04DX002 (ip), vehicle: saline 103 % of control

Cc1ccc(S(=O)(=O)NCCCl)cc1
inactive: dose: 25.0 mg/kg/injection, schedule: Q04DX003 (ip), vehicle: saline with Tween-80 104 % of control | [20] 99 % of control | [21] 114 % of control | [22] 98 % of control

C/C(=N/NC(=O)c1ccccc1)c1ccccc1O
inactive: [4] 104 % of control | [5] 100 % of control | [6] 104 % of control | dose: 400.0 mg/kg/injection, schedule: Q01DX009 (ip), vehicle: saline with Tween-80 107 % of control

[O-]/[N+](C1C(Cl)C2CC1C1C=CCC12)=[N+](\[O-])C1C(Cl)C2CC1C1C=CCC12 (configuration not stated)
inactive: dose: 15.0 mg/kg/injection, schedule: Q01DX005 (ip), vehicle: saline with Tween-80 95 % of control | dose: 30.0 mg/kg/injection, schedule: Q01DX005 (ip), vehicle: saline with Tween-80 92 % of control | [11] 100 % of control and 86 % of control

CCCCOC(=O)CSSCC(=O)OCCCC
inactive: [20] 109 % of control | [21] 109 % of control | [22] 109 % of control

Cc1cccc(NC(=O)CCC(=O)NS(C)(=O)=O)c1
inactive: dose: 100.0 mg/kg/injection, schedule: Q04DX002 (ip), vehicle: saline 103 % of control | dose: 200.0 mg/kg/injection, schedule: Q04DX002 (ip), vehicle: saline 102 % of control | dose: 400.0 mg/kg/injection, schedule: Q04DX002 (ip), vehicle: saline 100 % of control

O=C(O)C(Nc1ncnc2c1ncn2C1OC(CO)C(O)C1O)C(F)(F)C(=O)O (configuration not stated)
inactive: dose: 100.0 mg/kg/injection, schedule: Q04DX003 (ip), vehicle: saline 97 % of control | dose: 200.0 mg/kg/injection, schedule: Q04DX003 (ip), vehicle: saline 100 % of control | dose: 400.0 mg/kg/injection, schedule: Q04DX003 (ip), vehicle: saline 99 % of control

COC1=C(OC)C(=O)C(SCCCc2ccccc2)=CC1=O
inactive: dose: 12.5 mg/kg/injection, schedule: Q04DX002 (ip), vehicle: saline with Tween-80 114 % of control | dose: 25.0 mg/kg/injection, schedule: Q04DX002 (ip), vehicle: saline with Tween-80 112 % of control | dose: 50.0 mg/kg/injection, schedule: Q04DX002 (ip), vehicle: saline with Tween-80 122 % of control

COc1cccc(OC)c1OCCN1C(=O)c2ccccc2C1=O
inactive: [17] 100 % of control | [18] 100 % of control | [19] 105 % of control
